The test system of assay [1] is Hepatitis B virus. Kind of assay: Antiviral activity against HBV infected in human HepDES19 cells assessed as reduction in viral cccDNA level. Format: functional, organism-based.
Assay [2] deals with Hepatitis B virus. The experiment in a line: Antiviral activity against HBV infected in human HepG2.2.15 cells assessed as reduction in viral DNA level after 8 days by dot-blot hybridization assay. Type of assay: functional, organism-based. The note with it: HepG2.2.15, 192 h.

For the molecule `Cc1nc2cc(NC(=O)c3ccc(S(=O)(=O)N(C)Cc4ccccc4)cc3)ccc2s1`, the half-maximal effective concentration (EC50) (as a rule, the concentration giving half of the maximal effect) with Hepatitis B virus [1] worked out at 3000 nM.

`O=C(CN(c1cc(C(F)(F)F)ccc1Cl)S(=O)(=O)c1ccccc1)NCc1ccncc1`: the EC50 with Hepatitis B virus [1] is 10000 nM.

Consider `COC(=O)C1=C(C)NC(c2ncc(F)cc2F)=N[C@H]1c1ccc(F)cc1Cl`, for which the IC50 (commonly the concentration at which inhibition is half-maximal) with Hepatitis B virus [2] came out at 53 nM.
